Measured values from ChEMBL document CHEMBL1155501, “Studies on two types of PTP1B inhibitors for the treatment of type 2 diabetes: Hologram QSAR for OBA and BBB analogues” (Bioorg Med Chem Lett, 2010).

These compounds were tested against T1, Tyrosine-protein phosphatase non-receptor type 1 (Homo sapiens, UniProt P18031) (assay: Binding affinity to human recombinant PTP1B).
T1 sequence (P18031 whole entry): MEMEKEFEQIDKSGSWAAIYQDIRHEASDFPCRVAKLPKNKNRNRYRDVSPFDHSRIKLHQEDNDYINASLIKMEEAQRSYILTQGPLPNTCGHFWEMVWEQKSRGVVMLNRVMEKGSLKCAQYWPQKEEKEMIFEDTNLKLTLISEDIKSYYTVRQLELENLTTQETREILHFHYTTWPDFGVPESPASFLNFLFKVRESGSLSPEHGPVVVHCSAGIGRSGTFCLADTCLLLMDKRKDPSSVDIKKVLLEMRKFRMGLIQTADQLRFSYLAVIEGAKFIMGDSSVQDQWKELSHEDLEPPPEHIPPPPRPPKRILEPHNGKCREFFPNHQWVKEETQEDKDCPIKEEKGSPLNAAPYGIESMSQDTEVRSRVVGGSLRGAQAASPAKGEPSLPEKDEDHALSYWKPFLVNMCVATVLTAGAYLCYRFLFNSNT

SMILES	Ki [µM]	IC50 [µM]
Nc1cccc(-c2cc(NC(=O)C(=O)O)c(C(=O)O)s2)c1	6.03	
Cc1cccc(C(=O)O)c1NC(=O)C(=O)O	1260	
CCCCc1sc2ccccc2c1-c1ccc(-c2ccc(O)cc2)cc1		0.692
CCCCc1sc2ccccc2c1-c1ccc(-c2ccc(OCC(=O)O)cc2)cc1		2.19
O=C(O)[C@H](Oc1ccc(-c2ccc(-c3c(Cc4ccc(O)cc4O)sc4ccccc34)cc2)cc1)c1ccccc1		0.12
O=C(O)/C=C/C(=O)Nc1cc(-c2ccc(-c3c(Cc4ccccc4)oc4ccccc34)cc2)ccc1O		0.457
Oc1c(Br)cc(-c2ccc(-c3c(Cc4ccccc4)sc4ccccc34)cc2)cc1Br		0.447
O=C(O)C(=O)Nc1sc2c(c1C(=O)O)CCS(=O)(=O)C2	6.03	
